From patent US20220146526A1, “METHOD FOR EVALUATING SAMPLE, ANALYSIS METHOD, METHOD FOR DETECTING DEGRADED SAMPLE, MARKER FOR DETECTING DEGRADED BLOOD PLASMA SAMPLE, AND MARKER FOR DETECTING DEGRADED SERUM SAMPLE” (SHIMADZU CORPORATION, priority 2019, published 2022)

Legend:
Format in all cases: physicochemical, human
[1] = LC/MS of blood plasma sample: time from blood collection to centrifugation (Table D); conditions: blood collection to centrifugation; for Rate of increase or decrease: detection intensity relative to 1 at 15 minutes; for Increase or decrease: detection intensity
Method in brief: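 Detection intensities are expressed relative to samples centrifuged 15 min after collection (=1), measured by electrospray LC/MS in MRM mode (Discovery HS F5-3, 40 °C, formic acid water/acetonitrile gradient at 0.25 mL/min). EDTA blood from a healthy donor was held at 4 °C, centrifuged at 4 °C, 3000 rpm, 15 min, and plasma frozen.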

[2] = LC/MS of blood plasma sample: time from blood collection to cooling of blood (Table E); set-up: key to Rate of increase or decrease / Rate of increase or decrease (first value, increase): detection intensity relative to ≤1 min to cooling = 1; conditions: for Increase or decrease: detection intensity, blood collection to cooling 5 minutes or more vs 1 minute or less; for Rate of increase or decrease (second value, decrease) / Rate of increase or decrease (first value, increase): different from individual to individual, relative to 1 at 1 minute or less, collection to cooling 5 minutes; for Rate of increase or decrease (second value, decrease): individuals with decrease; for Rate of increase or decrease (first value, increase): individuals with increase; for Rate of increase or decrease: detection intensity relative to 1 at 1 minute or less, blood collection to cooling 5 minutes
Procedure: At room temperature, 5 mL of blood from a healthy subject was taken into a blood-collecting vessel containing EDTA, and the blood-collecting vessel was inverted for mixing, then cooled, and allowed to stand at 4° C. Here, in order to investigate how the detection intensity of molecules contained in the sample was affected in a case where the time to cooling was set to 5 minutes or more as compared to that in a case where the time to cooling was set to 1 minute or less, preparations were performed under both the former condition and the latter condition. After standing, the blood sample was subjected to centrifugation under a condition of 4° C., 3000 rpm, and 15 minutes. […] After centrifugation, the blood-collecting vessel was left to stand at room temperature for 30 minutes, and the blood plasma was isolated during this 30 minutes. The obtained blood plasma sample was frozen and stored. Here, in order to investigate how the detection intensity of molecules contained in the sample was affected in cases where freezing and thawing was performed 4 times, 6 times, and 10 times after freezing as compared to that in a case where freezing and thawing was performed 2 times after freezing, freezing and thawing was performed under the respective conditions of 2, 4, 6, and 10 times.
Frozen blood plasma samples and serum samples were subjected to GC/MS or LC/MS. In GC/MS, the blood plasma samples and serum samples were subjected to methoxymation and trimethylsilylation and then introduced to GC-MS.
Analysis column: Discovery HS F5-3 (inner diameter of 2.1 mm, length of 150 mm, film thickness of 3 μm) (Sigma-Aldrich)
Column temperature: 40° C.
(A) 0.1% formic acid (dissolved in water)
(B) 0.1% formic acid (dissolved in acetonitrile)
Flow velocity: 0.25 mL/min
Ionization method: electrospray
Temperature: • Desolvation Line (DL) temperature: 250° C. • Heat block temperature: 400° C. • Interface temperature: 300° C.
Gas flow rate: • Nebulizer gas flow rate: 3.0 L/min • Drying gas flow rate: 10.0 L/min • Heating gas flow rate: 10.0 L/min
Mode: multiple reaction monitoring (MRM)
The rate of increase or decrease in Table E is the value of detection intensity relative to 1 that is the detection intensity in a case where the time from blood collection to cooling is set to 1 minute or less.

[3] = LC/MS of blood plasma sample: number of times of freezing and thawing (Table F); conditions: for Rate of increase or decrease: detection intensity relative to 1 at 2 times; for Increase or decrease: detection intensity; for Rate of increase or decrease (second value, decrease) / Rate of increase or decrease (first value, increase): different from individual to individual, relative to 1 at 2 times, freezing and thawing 6 times; for Rate of increase or decrease (second value, decrease): individuals with decrease; for Rate of increase or decrease (first value, increase): individuals with increase
Method in brief: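 Values are detection intensities normalised to 1 for plasma thawed twice, compared against 4, 6 and 10 freeze-thaw cycles. Measured by electrospray LC/MS in MRM mode, formic acid water/acetonitrile mobile phase, column at 40° C. Plasma came from EDTA blood, cooled to 4° C and spun at 3000 rpm for 15 min.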

[4] = LC/MS of serum sample: time from centrifugation to isolation (Table K); set-up: key to Rate of increase or decrease: detection intensity relative to the 30-minute value set as 1; conditions: for Rate of increase or decrease: detection intensity relative to 1 at 30 minutes; for Increase or decrease / Time when compound is affected: serum sample, LC/MS; for Increase or decrease: detection intensity vs 30 minutes from centrifugation to isolation; for Time when compound is affected: time from centrifugation to isolation, detection intensity changed by 30% or more vs 30 minutes
Method in brief: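 Serum left at room temperature 30 min, 1 h or 6 h between centrifugation (3500 rpm, 5 min, room temperature) and isolation, then frozen and analysed by LC/MS (Discovery HS F5-3 column, 40° C., 0.1% formic acid water/acetonitrile, electrospray, MRM). Values are detection intensity relative to the 30-min condition set to 1.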

[5] = LC/MS of serum sample: number of times of freezing and thawing (Table M); set-up: key to Rate of increase or decrease: detection intensity relative to 1 at 2 freeze-thaw cycles; conditions: for Rate of increase or decrease: detection intensity relative to 1 at 2 times; for Number of times when compound is affected / Increase or decrease: serum sample, LC/MS; for Number of times when compound is affected: detection intensity changed by 30% or more vs 2 times of freezing and thawing; for Increase or decrease: detection intensity vs 2 times of freezing and thawing
Method in brief: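 Values are detection intensities relative to serum thawed twice, versus 4, 6 or 10 freeze-thaw cycles. Serum came from blood spun at room temperature, 3500 rpm for 5 minutes. Analysis: electrospray LC/MS in MRM mode, Discovery HS F5-3 column, 40° C, 0.1% formic acid in water and acetonitrile.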

[6] = LC/MS of serum sample: time from blood collection to centrifugation (Table J); conditions: for Rate of increase or decrease: detection intensity relative to 1 at 15 minutes; for Increase or decrease / Time when compound is affected: serum sample, LC/MS; for Increase or decrease: detection intensity vs 15 minutes from blood collection to centrifugation; for Time when compound is affected: time from blood collection to centrifugation, detection intensity changed by 30% or more vs 15 minutes
Method in brief: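 Detection intensities are expressed relative to 1 for samples centrifuged 15 min after blood collection; centrifugation was at room temperature, 3500 rpm, 5 min. Frozen serum was run by electrospray LC-MS in MRM mode, with 0.1% formic acid water/acetonitrile at 0.25 mL/min on a 40 °C F5 column.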

[7] = freezing and thawing 4 times vs 2 times
[8] = after 1 hour from centrifugation to isolation
[9] = 4 times of freezing and thawing
[10] = after 4 hours from blood collection to centrifugation
[11] = after 6 hours from centrifugation to isolation
[12] = 10 times of freezing and thawing
[13] = freezing and thawing 6 times vs 2 times

SMILES | Rate of increase or decrease ([1]; after 4 hours) | Increase or decrease ([1]; after 4 hours vs 15 minutes) | Increase or decrease [2] | Rate of increase or decrease (second value, decrease) [2] | Rate of increase or decrease (first value, increase) [2] | Rate of increase or decrease ([3]; freezing and thawing 4 times) | Increase or decrease [3, 7] | Rate of increase or decrease [4, 8] | Increase or decrease [4] | Time when compound is affected [4] | Rate of increase or decrease [5, 9] | Number of times when compound is affected [5] | Increase or decrease [5] | Rate of increase or decrease [2] | Rate of increase or decrease [6, 10] | Increase or decrease [6] | Time when compound is affected [6] | Increase or decrease [3, 13] | Rate of increase or decrease (second value, decrease) [3] | Rate of increase or decrease (first value, increase) [3] | other results
Nc1ncnc2c1ncn2[C@@H]1O[C@H](COP(=O)(O)O)[C@@H](O)[C@H]1O [Adenosine monophosphate] | 1.56 | Increase | Different from individual | 0.62 | 1.43 | 1.50 | Increase | 0.13 | Decrease | After 1 hour hours | 0.23 | 4 times | Decrease |  |  |  |  |  |  |  | 
N[C@@H](CC(=O)O)C(=O)O [Aspartic acid] |  |  | Increase |  |  |  |  |  | Increase | After 6 hours |  | 10 times | Decrease | 1.93 | 2.10 | Increase | After 4 hours |  |  |  | Rate of increase or decrease ([1]; after 6 hours): 1.46; Increase or decrease ([1]; after 6 hours vs 15 minutes): Increase; Rate of increase or decrease ([3]; freezing and thawing 10 times): 1.76; Increase or decrease ([3]; freezing and thawing 10 times vs 2 times): Increase; Rate of increase or decrease [4, 11]: 2.40; Rate of increase or decrease [5, 12]: 0.53
N[C@@H](CS)C(=O)O [Cysteine] | 1.33 | Increase | Increase |  |  | 1.99 | Increase |  | Decrease | After 6 hours | 1.37 | 4 times | Increase | 1.67 |  | Increase | After 6 hours |  |  |  | Rate of increase or decrease ([6]; after 6 hours from blood collection to centrifugation): 1.39; Rate of increase or decrease [4, 11]: 0.61
OC[C@H]1O[C@@H](n2cnc3c(O)ncnc32)[C@H](O)[C@@H]1O [Inosine] | 2.26 | Increase | Different from individual | 0.64 | 18.25 |  |  | 0.61 | Decrease | After 1 hour hours | 1.44 | 4 times | Increase |  | 0.17 | Decrease | After 4 hours | Different from individual | 0.53 | 1.67 | 

More lines, main results first:

Rate of increase or decrease ([1]; after 4 hours) | Increase or decrease ([1]; after 4 hours vs 15 minutes) | Increase or decrease [2] | Rate of increase or decrease (second value, decrease) [2] | Rate of increase or decrease (first value, increase) [2] | Rate of increase or decrease ([3]; freezing and thawing 4 times) | Increase or decrease [3, 7] | Rate of increase or decrease [4, 8] | Increase or decrease [4] | Time when compound is affected [4] | Rate of increase or decrease [5, 9] | Number of times when compound is affected [5] | Increase or decrease [5] | Rate of increase or decrease [2] | Rate of increase or decrease [6, 10] | Increase or decrease [6] | Time when compound is affected [6] | Increase or decrease [3, 13] | Rate of increase or decrease (second value, decrease) [3] | Rate of increase or decrease (first value, increase) [3] | SMILES | other results
1.95 | Increase | Different from individual | 0.46 | 2.56 |  |  | 0.70 | Decrease | After 1 hour hours | 1.52 | 4 times | Increase |  | 0.62 | Decrease | After 4 hours | Different from individual | 0.30 | 1.54 | Nc1ccn([C@@H]2O[C@H](CO)[C@@H](O)[C@H]2O)c(=O)n1 [Cytidine] | 
2.95 | Increase | Different from individual | 0.63 | 1.62 |  |  | 0.52 | Decrease | After 1 hour hours |  | 10 times | Decrease |  |  |  |  | Different from individual | 0.68 | 1.57 | NCCc1c[nH]c2ccc(O)cc12 [Serotonin] | Rate of increase or decrease [5, 12]: 0.65
